Results published in US8772237B2, “Compositions and methods for counteracting effects of reactive oxygen species and free radicals” (Ischemix, Inc., priority 1999, dated 2014).
Ends that are not written are not given here.

Tested on: middle cerebral artery (MCA) temporary occlusion stroke model
Assay: Temporary MCA occlusion stroke model
Type: in vivo, Sprague-Dawley rats
Description: The in vivo neuroprotective effects of CMX-9236 were investigated in both temporary and permanent occlusion stroke models in Sprague-Dawley rats using an intraluminal suture of the middle cerebral artery (MCA) occlusion method (Zea Longa et al., Stroke, 20: 84 (1989)). Briefly, a 4-0 silicone-coated suture was inserted through the right common carotid artery to block the MCA orifice. In the temporary model, CMX-9236 (6.2 mg/kg/hr) or vehicle was administered via the femoral vein at 30 minutes after the start of a 2-hour occlusion for a 4-hour continuous infusion; the rats were then reperfused by withdrawing the suture at […] after the MCA occlusion. All experiments were performed in a blinded and randomized manner, and rectal temperature was maintained at 37° C. The animals were sacrificed, and their brains were removed, sectioned into six 2-mm-thick coronal slices and stained with 2,3,5-triphenyltetrazolium chloride solution (Bederson et al., Stroke, 17:1304 (1986)) to visualize the extent of brain damage for the calculation of the corrected hemispheric infarct volumes (Nagasawa and Kogure, Stroke, 20:1037 (1989); Li et al., J. Cereb. Blood Flow Metab., 17:1132 (1997)). […] This represents a significant reduction of infarct size (35±5%, p=0.01, student t-test) for the CMX-9236-treated group in the temporary occlusion model. There was also a 58+11% improvement in the neurological scoring (Minematsu et al., Neurology, 42:235 (1992)) for the peptide-treated group versus controls at the end of 24 hours.

For “KKDGDGDFAIDAPE [CMX-9236, uncapped peptide]”, the “corrected infarct volume (mean±S.E.)” value (6.2 mg/kg/hr i.v., 4-hour infusion from 30 min after start of occlusion, n=10) was 117.3±17 mm^3, the “reduction of infarct size vs vehicle” value (6.2 mg/kg/hr, p=0.01) was 35±5% and the “improvement in neurological scoring vs controls” value (at the end of 24 hours) was 58+11%.
